Results taken from patent US8846601B2, “Melanocortin receptor-specific peptides” (Palatin Technologies, Inc., priority 2009, dated 2014).
Peptide text beside a SMILES is read from it.

Key:
[1] = target: T1, hMC4-R (Homo sapiens (Human), UniProt P32245); assay: Competitive binding assay using Eu-NDP-α-MSH (TRF), hMC4-R membranes; settings: averaged; Eu-NDP-α-MSH (values marked *); read-out: MC4-R Ki
Method: Alternatively, a competitive inhibition binding assay was performed employing Eu-NDP-α-MSH (PerkinElmer Life Sciences catalog No. AD0225) with determination by time-resolved fluorometry (TRF) of the lanthanide chelate. […] After incubation for 90 minutes at 37° C., the reaction was stopped by filtration over AcroWell 96-well filter plates (Pall Life Sciences). The filter plates were washed 4 times with 200 μL of ice-cold phosphate-buffered saline. DELFIA Enhancement solution (PerkinElmer Life Sciences) was added to each well. […] Each assay was conducted in duplicate and mean values were utilized. Ki values were determined by curve-fitting with Graph-Pad Prism® software using a one-site fixed-slope competition binding model.

[2] = target: T1, hMC4-R; assay: Competitive inhibition binding assay using [I125]-NDP-α-MSH, hMC4-R membranes; settings: averaged; [I125]-NDP-α-MSH (values not marked *); read-out: MC4-R Ki
Method: A competitive inhibition binding assay is performed using membrane homogenates prepared from HEK-293 cells that express recombinant hMC4-R, hMC3-R, or hMC5-R, and from B-16 mouse melanoma cells (containing endogenous MC1-R). In some instances, HEK-293 cells that express recombinant hMC1-R were employed. In the examples that follow, all MC3-R, MC4-R and MC5-R values are for human recombinant receptors. […] Membrane homogenates were incubated with 0.2 nM (for hMC4-R) 0.4 nM (for MC3-R and MC5-R) or 0.1 nM (for mouse B16 MC1-R or hMC1-R) [I^125]-NDP-α-MSH (Perkin Elmer) and increasing concentrations of test peptides of the present invention in buffer containing 25 mM HEPES buffer (pH 7.5) with 100 mM NaCl, 2 mM CaCl2, 2 mM MgCl2, 0.3 mM 1,10-phenanthroline, and 0.2% bovine serum albumin. After incubation for 60 minutes at 37° C., the assay mixture was filtered and the membranes washed three times with ice-cold buffer. Filters were dried and counted in a gamma counter for bound radioactivity. […] Maximal specific binding (100%) was defined as the difference in radioactivity (cpm) bound to cell membranes in the absence and presence of 1 μM NDP-α-MSH. […] Each assay was conducted in triplicate and the actual mean values are described, with results less than 0% reported as 0%. Ki values for test peptides of the present invention were determined using Graph-Pad Prism® curve-fitting software.

T1 sequence (P32245 whole entry): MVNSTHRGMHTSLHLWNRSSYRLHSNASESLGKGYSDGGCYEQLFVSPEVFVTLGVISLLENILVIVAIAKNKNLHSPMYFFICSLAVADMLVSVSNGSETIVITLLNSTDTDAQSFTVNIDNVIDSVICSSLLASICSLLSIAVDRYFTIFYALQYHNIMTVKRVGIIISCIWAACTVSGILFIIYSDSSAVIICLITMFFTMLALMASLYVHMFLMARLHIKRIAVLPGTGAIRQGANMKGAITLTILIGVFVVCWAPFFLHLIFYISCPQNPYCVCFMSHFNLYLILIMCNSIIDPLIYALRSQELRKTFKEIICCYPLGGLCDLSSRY

SMILES	Ki [1]	Ki [2]
CC(=O)N[C@@H](CCCNC(=N)N)C(=O)N[C@H]1CC(=O)NCCCC[C@@H](C(N)=O)NC(=O)[C@H](Cc2c[nH]c3ccccc23)NC(=O)[C@H](CCCCN)NC(=O)[C@@H](Cc2ccccc2)NC(=O)[C@H](Cc2c[nH]cn2)NC1=O [compound 6, Ac-Arg-cyclo(Asp-His- D-Phe-Lys-Trp-Lys)- NH2] (HELM PEPTIDE1{[ac].R.D.H.[dF].K.W.K.[am]}$PEPTIDE1,PEPTIDE1,3:R3-8:R3$$$V2.0)	533 nM	–
CC(=O)N[C@@H](CCCNC(=N)N)C(=O)N[C@H]1CC(=O)NCCCC[C@@H](C(N)=O)NC(=O)[C@H](Cc2c[nH]c3ccccc23)NC(=O)[C@H](CCCCN)NC(=O)[C@@H](Cc2ccccc2)NC(=O)[C@H](CCCCN)NC1=O [compound 7, Ac-Arg-cyclo(Asp-Lys- D-Phe-Lys-Trp-Lys)- NH2] (HELM PEPTIDE1{[ac].R.D.K.[dF].K.W.K.[am]}$PEPTIDE1,PEPTIDE1,3:R3-8:R3$$$V2.0)	2960 nM	–
CC(=O)N[C@@H](CCCNC(=N)N)C(=O)N[C@H]1CC(=O)NCCCC[C@@H](C(N)=O)NC(=O)[C@H](Cc2c[nH]c3ccccc23)NC(=O)[C@H](CCCCN)NC(=O)[C@@H](Cc2ccccc2)NC(=O)[C@H](C)NC1=O [compound 8, Ac-Arg-cyclo(Asp-Ala- D-Phe-Lys-Trp-Lys)- NH2] (HELM PEPTIDE1{[ac].R.D.A.[dF].K.W.K.[am]}$PEPTIDE1,PEPTIDE1,3:R3-8:R3$$$V2.0)	3020 nM	–
CC(=O)N[C@@H](CCCNC(=N)N)C(=O)N[C@H]1CC(=O)NCCCC[C@@H](C(N)=O)NC(=O)[C@H](Cc2c[nH]c3ccccc23)NC(=O)[C@H](CCCNC(=N)N)NC(=O)[C@@H](Cc2ccccc2)NC(=O)[C@H](Cc2ccc(O)cc2)NC1=O [compound 11, Ac-Arg-cyclo(Asp-Tyr- D-Phe-Arg-Trp-Lys)- NH2] (HELM PEPTIDE1{[ac].R.D.Y.[dF].R.W.K.[am]}$PEPTIDE1,PEPTIDE1,3:R3-8:R3$$$V2.0)	43 nM	–
CC(=O)N[C@@H](CCCNC(=N)N)C(=O)N[C@H]1CC(=O)NCCCC[C@@H](C(N)=O)NC(=O)[C@H](Cc2c[nH]c3ccccc23)NC(=O)[C@H](CCCNC(=N)N)NC(=O)[C@@H](Cc2ccccc2)NC(=O)[C@H](CC(C)C)NC1=O [compound 12, Ac-Arg-cyclo(Asp-Leu- D-Phe-Arg-Trp-Lys)- NH2] (HELM PEPTIDE1{[ac].R.D.L.[dF].R.W.K.[am]}$PEPTIDE1,PEPTIDE1,3:R3-8:R3$$$V2.0)	33 nM	–
CC(=O)N[C@@H](CCCNC(=N)N)C(=O)N[C@H]1CC(=O)NCCCC[C@@H](C(N)=O)NC(=O)[C@H](Cc2c[nH]c3ccccc23)NC(=O)[C@H](CCCNC(=N)N)NC(=O)[C@@H](Cc2ccccc2)NC(=O)[C@@H]2C[C@@H](OCc3ccccc3)CN2C1=O [compound 15, Ac-Arg-cyclo(Asp- Hyp(Bzl)-D-Phe-Arg- Trp-Lys)-NH2]	0.7 nM	–
CC(=O)N[C@@H](CCCNC(=N)N)C(=O)N[C@H]1CC(=O)NCCCC[C@@H](C(N)=O)NC(=O)[C@H](Cc2c[nH]c3ccccc23)NC(=O)[C@H](CCCNC(=N)N)NC(=O)[C@@H](Cc2ccccc2)NC(=O)[C@@H]2C[C@@H](Cc3ccccc3)CN2C1=O [compound 18, Ac-Arg-cyclo(Asp- Pro(4R-Bzl)-D-Phe-Arg- Trp-Lys)-NH2]	3 nM	–
CC(=O)N[C@@H](CCCNC(=N)N)C(=O)N[C@H]1CC(=O)NCCCC[C@@H](C(N)=O)NC(=O)[C@H](Cc2c[nH]c3ccccc23)NC(=O)[C@H](CCCNC(=N)N)NC(=O)[C@@H](Cc2ccccc2)NC(=O)[C@H](CCCNC(=N)N)NC1=O [compound 28, Ac-Arg-cyclo(Asp-Arg- D-Phe-Arg-Trp-Lys)- NH2]	4 nM	–
CC(=O)N[C@@H](CCCNC(N)=O)C(=O)N[C@H]1CC(=O)NCCCC[C@@H](C(N)=O)NC(=O)[C@H](Cc2c[nH]c3ccccc23)NC(=O)[C@H](CCCNC(=N)N)NC(=O)[C@@H](Cc2ccccc2)NC(=O)[C@H](CCN)NC1=O [compound 141, Ac-Cit-cyclo(Asp-Dab- D-Phe-Arg-Trp-Lys)- NH2]	–	9 nM
CC(=O)N[C@@H](CCC(N)=O)C(=O)N[C@H]1CC(=O)NCCCC[C@@H](C(N)=O)NC(=O)[C@H](Cc2c[nH]c3ccccc23)NC(=O)[C@H](CCCNC(=N)N)NC(=O)[C@@H](Cc2ccccc2)NC(=O)[C@H](CCN)NC1=O [compound 142, Ac-Gln-cyclo(Asp-Dab- D-Phe-Arg-Trp-Lys)- NH2] (HELM PEPTIDE1{[ac].Q.D.[Dab].[dF].R.W.K.[am]}$PEPTIDE1,PEPTIDE1,3:R3-8:R3$$$V2.0)	–	15 nM
CC(=O)N[C@@H](CCCNC(=N)N)C(=O)N[C@H]1CCCC(=O)NCC[C@@H](C(=O)O)NC(=O)[C@H](Cc2c[nH]c3ccccc23)NC(=O)[C@H](CCCNC(=N)N)NC(=O)[C@@H](Cc2ccccc2)NC(=O)[C@H](CCN)NC1=O [compound 144, Ac-Arg-cyclo(hGlu-Dab- D-Phe-Arg-Trp-Dab)- OH]	–	45 nM
CC(=O)N[C@@H](CCCNC(=N)N)C(=O)N[C@H]1CCCC(=O)NCC[C@@H](C(N)=O)NC(=O)[C@H](Cc2c[nH]c3ccccc23)NC(=O)[C@H](CCCNC(=N)N)NC(=O)[C@@H](Cc2ccccc2)NC(=O)[C@H](CCS(C)(=O)=O)NC1=O [compound 145, Ac-Arg-cyclo(hGlu- Met(O2)-D-Phe-Arg- Trp-Dab)-NH2] (HELM PEPTIDE1{[ac].R.[O=C([C@H](CCCC(=O)[*:3])N[*:1])[*:2]].[CS(=O)(=O)CC[C@H](N[*:1])C(=O)[*:2]].[dF].R.W.[Dab].[am]}$PEPTIDE1,PEPTIDE1,3:R3-8:R3$$$V2.0)	–	4 nM
CC(=O)N[C@@H](CCCNC(=N)N)C(=O)N[C@H]1CCCC(=O)NCC[C@@H](C(N)=O)NC(=O)[C@H](Cc2c[nH]c3ccccc23)NC(=O)[C@H](CCCNC(=N)N)NC(=O)[C@@H](Cc2ccccc2)NC(=O)[C@H](CCC(N)=O)NC1=O [compound 147, Ac-Arg-cyclo(hGlu-Gln- D-Phe-Arg-Trp-Dab)- NH2]	–	20 nM
CC(=O)N[C@@H](CCCNC(=N)N)C(=O)N[C@H]1CCCCNC(=O)C[C@@H](C(N)=O)NC(=O)[C@H](Cc2c[nH]c3ccccc23)NC(=O)[C@H](CCCNC(=N)N)NC(=O)[C@@H](Cc2ccccc2)NC(=O)[C@H](CCC(N)=O)NC1=O [compound 151, Ac-Arg-cyclo(Lys-Gln- D-Phe-Arg-Trp-Asp)- NH2] (HELM PEPTIDE1{[ac].R.K.Q.[dF].R.W.D.[am]}$PEPTIDE1,PEPTIDE1,3:R3-8:R3$$$V2.0)	–	4 nM
CCCCC(=O)N[C@H]1CCC(=O)NCC[C@@H](C(=O)N[C@@H](Cc2c[nH]c3ccccc23)C(N)=O)NC(=O)[C@H](CCCNC(=N)N)NC(=O)[C@@H](Cc2ccccc2)NC(=O)[C@H](Cc2c[nH]cn2)NC1=O [compound 153, n-C4H9—CO-cyclo(Glu- His-D-Phe-Arg-Dab)- Trp-NH2]	–	365 nM
CC(=O)N[C@@H](CCCN)C(=O)N[C@H]1CCCNC(=O)CC[C@@H](C(N)=O)NC(=O)[C@H](Cc2c[nH]c3ccccc23)NC(=O)[C@H](CCCNC(=N)N)NC(=O)[C@@H](Cc2ccccc2)NC(=O)[C@H](CC(N)=O)NC1=O [compound 158, Ac-Orn-cyclo(Orn-Asn- D-Phe-Arg-Trp-Glu)- NH2] (HELM PEPTIDE1{[ac].[Orn].[Orn].N.[dF].R.W.E.[am]}$PEPTIDE1,PEPTIDE1,3:R3-8:R3$$$V2.0)	–	50 nM
